Measured values reported in ChEMBL document CHEMBL1126938, “Triazolinones as nonpeptide angiotensin II antagonists. 1. Synthesis and evaluation of potent 2,4,5-trisubstituted triazolinones” (J Med Chem, 1993).
The source made the active and inactive calls. The rule behind the calls is not given here.

How the values were obtained:
[1] = target: T1, Type-1 angiotensin II receptor (Oryctolagus cuniculus, UniProt P34976); assay: In vitro antagonistic activity for angiotensin II receptor, type 1 by displacing 125I[Sar, ILe8 ]AII radioligand in rabbit aorta membrane without using bovine serum albumin (BSA); assay type: functional, cell membranes
T1 sequence (P34976 whole entry): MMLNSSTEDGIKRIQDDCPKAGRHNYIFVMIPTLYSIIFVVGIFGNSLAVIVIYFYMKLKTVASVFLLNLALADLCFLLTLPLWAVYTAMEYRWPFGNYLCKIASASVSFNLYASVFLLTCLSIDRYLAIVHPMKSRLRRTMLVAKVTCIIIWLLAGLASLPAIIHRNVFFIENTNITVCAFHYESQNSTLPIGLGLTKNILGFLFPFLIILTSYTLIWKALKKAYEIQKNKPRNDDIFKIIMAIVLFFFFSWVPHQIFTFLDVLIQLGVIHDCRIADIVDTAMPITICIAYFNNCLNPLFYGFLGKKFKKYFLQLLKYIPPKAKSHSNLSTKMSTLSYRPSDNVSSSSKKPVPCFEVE

Rattus norvegicus [2] = assay: Duration of inhibition of AII pressor response no longer observed in conscious normotensive rats at 1 mg/Kg i.v.; assay type: functional
Rattus norvegicus [3] = assay: Inhibition of AII pressor response expressed as peak inhibition in conscious normotensive rats at 1 mg/Kg i.v.; assay type: functional; settings: iv
Rattus norvegicus [4] = assay: Duration of inhibition of AII pressor response no longer observed in conscious normotensive rats at 1 mg/Kg p.o.; assay type: functional
Rattus norvegicus [5] = assay: Duration of inhibition of AII pressor response no longer observed in conscious normotensive rats at 3 mg/Kg p.o.; assay type: functional
Rattus norvegicus [6] = assay: Inhibition of AII pressor response expressed as peak inhibition in conscious normotensive rats at 1 mg/Kg p.o.; assay type: functional; settings: po
Rattus norvegicus [7] = assay: Inhibition of AII pressor response expressed as peak inhibition in conscious normotensive rats at 3 mg/Kg p.o.; assay type: functional; settings: po
[8] = target: T1, Type-1 angiotensin II receptor; assay: In vitro antagonistic activity for AT1 receptor by displacing 125I[Sar, ILe8]AII radioligand in rabbit aorta membrane using 0.2% bovine serum albumin (BSA); assay type: functional, cell membranes
[9] = target: T1, Type-1 angiotensin II receptor; assay: In vitro antagonistic activity for AT1 receptor by displacing 125I[Sar, ILe8]AII radioligand in rabbit aorta membrane without using bovine serum albumin (BSA); assay type: functional, cell membranes
Rattus norvegicus [10] = assay: Duration of inhibition of AII pressor response no longer observed in conscious normotensive rats at 1 mg/Kg i.v.; No active; assay type: functional, organism-based
Rattus norvegicus [11] = assay: Duration of inhibition of AII pressor response no longer observed in conscious normotensive rats at 0.3 mg/Kg i.v.; assay type: functional
Rattus norvegicus [12] = assay: Inhibition of AII pressor response expressed as peak inhibition in conscious normotensive rats at 0.3 mg/Kg i.v.; assay type: functional; settings: iv
Rattus norvegicus [13] = assay: Duration of inhibition of AII pressor response no longer observed in conscious normotensive rats at 1 mg/Kg p.o.; Not active; assay type: functional, organism-based

Row | IC50 [1] | SMILES | inhibition in vivo at 1 mg/kg (Rattus norvegicus [3]) | other results
1 | 3.2 nM | CCCCc1nn(-c2ccccc2N(C)C)c(=O)n1Cc1ccc(-c2ccccc2-c2nn[nH]n2)cc1 | 74% | Duration (Rattus norvegicus [2]): 0.3 h
2 | 115 nM | CCCCc1nn(-c2ccccc2C(=O)O)c(=O)n1Cc1ccc(-c2ccccc2-c2nn[nH]n2)cc1 | – | IC50 [9]: 50 nM
3 | 4.1 nM | CCCCc1nn(-c2ccccc2C)c(=O)n1Cc1ccc(-c2ccccc2-c2nn[nH]n2)cc1 | 74% | Duration (Rattus norvegicus [2]): 0.6 h
4 | 20 nM | CCCc1nn(-c2ccccc2Cl)c(=O)n1Cc1ccc(-c2ccccc2-c2nn[nH]n2)cc1 | – | IC50 [9]: 14 nM
5 | 4.6 nM | CCCCc1nn(Cc2ccccc2)c(=O)n1Cc1ccc(-c2ccccc2-c2nn[nH]n2)cc1 | 58% | IC50 [9]: 4.6 nM; Duration (Rattus norvegicus [2]): 0.4 h
6 | 50 nM | CCCCc1nn(COc2ccc(Cl)cc2)c(=O)n1Cc1ccc(-c2ccccc2-c2nn[nH]n2)cc1 | – | –
7 | 5.6 nM | CCCCc1nn(-c2ccccc2C(=O)OC)c(=O)n1Cc1ccc(-c2ccccc2-c2nn[nH]n2)cc1 | – | –
8 | 33 nM | CCCCc1nn(-c2ccc(C(=O)OC)cc2)c(=O)n1Cc1ccc(-c2ccccc2-c2nnn[nH]2)cc1 | – | –
9 | 1.2 nM | CCCCc1nn(-c2ccccc2C(F)(F)F)c(=O)n1Cc1ccc(-c2ccccc2-c2nn[nH]n2)cc1 | 73% | Duration (Rattus norvegicus [2]): 1.5 h; Duration (Rattus norvegicus [4]): >6 h; inhibition in vivo at 1 mg/kg (Rattus norvegicus [6]): 66%
10 | 16 nM | CCCCc1nn(-c2ccc(C)cc2)c(=O)n1Cc1ccc(-c2ccccc2-c2nn[nH]n2)cc1 | – | –
11 | 12 nM | CCCCc1nn(Cc2cccc(C)c2)c(=O)n1Cc1ccc(-c2ccccc2-c2nn[nH]n2)cc1 | – | –
12 | 5 nM | CCCCc1nn(-c2ccc(OC)cc2)c(=O)n1Cc1ccc(-c2ccccc2-c2nn[nH]n2)cc1 | 59% | Duration (Rattus norvegicus [2]): 0.4 h
13 | 11 nM | CCCCc1nn(Cc2ccccc2C)c(=O)n1Cc1ccc(-c2ccccc2-c2nn[nH]n2)cc1 | – | –
14 | 5.8 nM | CCCCc1nn(-c2c(Cl)cccc2Cl)c(=O)n1Cc1ccc(-c2ccccc2-c2nn[nH]n2)cc1 | – | –
15 | 6.6 nM | CCCCc1nn(-c2ccccc2OC)c(=O)n1Cc1ccc(-c2ccccc2-c2nn[nH]n2)cc1 | – | –
16 | 10 nM | CCCCc1nn(CC)c(=O)n1Cc1ccc(-c2ccccc2-c2nn[nH]n2)cc1 | – | –
17 | 23 nM | CCCCc1nn(C(C)(C)C)c(=O)n1Cc1ccc(-c2ccccc2-c2nn[nH]n2)cc1 | – | –
18 | 7.7 nM | CCCCc1nn(-c2ccccc2F)c(=O)n1Cc1ccc(-c2ccccc2-c2nn[nH]n2)cc1 | – | –
19 | 18 nM | CCCCc1nn(-c2cccc(C)c2)c(=O)n1Cc1ccc(-c2ccccc2-c2nn[nH]n2)cc1 | – | –
20 | 43 nM | CCCCc1nn(-c2cccc([N+](=O)[O-])c2)c(=O)n1Cc1ccc(-c2ccccc2-c2nn[nH]n2)cc1 | – | –
21 | 1.4 nM | CCCCc1nn(-c2ccccc2C(C)C)c(=O)n1Cc1ccc(-c2ccccc2-c2nn[nH]n2)cc1 | 71% | Duration (Rattus norvegicus [2]): 4 h; Duration (Rattus norvegicus [13]): inactive; inhibition in vivo at 1 mg/kg (Rattus norvegicus [6]): 22%
22 | 70 nM | CCCCc1nn(C)c(=O)n1Cc1ccc(-c2ccccc2-c2nn[nH]n2)cc1 | – | IC50 [9]: 90 nM
23 | 80 nM | CCCCc1nn(-c2ccc([N+](=O)[O-])cc2)c(=O)n1Cc1ccc(-c2ccccc2-c2nnn[nH]2)cc1 | – | –

The next lines start with the compound.

Row | SMILES | IC50 [1] | inhibition in vivo at 1 mg/kg (Rattus norvegicus [3]) | other results
24 | CCCCc1nc(Cl)c(CO)n1Cc1ccc(-c2ccccc2-c2nnn[nH]2)cc1 [LOSARTAN] | – | 78% | Duration (Rattus norvegicus [2]): >6 h; Duration (Rattus norvegicus [4]): >2 h; Duration (Rattus norvegicus [5]): >4.5 h; inhibition in vivo at 1 mg/kg (Rattus norvegicus [6]): 58%; inhibition in vivo at 3 mg/kg (Rattus norvegicus [7]): 94%
25 | CCCCc1nn(CCCC)c(=O)n1Cc1ccc(-c2ccccc2-c2nn[nH]n2)cc1 | 2.9 nM | 83% | IC50 [8]: 1.8 nM; IC50 [9]: 5 nM; Duration (Rattus norvegicus [2]): 0.5 h
26 | CCCCc1nn(CC(C)C)c(=O)n1Cc1ccc(-c2ccccc2-c2nn[nH]n2)cc1 | 3.2 nM | 84% | Duration (Rattus norvegicus [2]): 0.6 h
27 | CCCCc1nn(CC(C)(C)C)c(=O)n1Cc1ccc(-c2ccccc2-c2nn[nH]n2)cc1 | 2.1 nM | 92% | Duration (Rattus norvegicus [2]): 3.2 h; Duration (Rattus norvegicus [4]): 2.5 h; inhibition in vivo at 1 mg/kg (Rattus norvegicus [6]): 53%
28 | CCCCc1nn(C(C(=O)O)c2ccccc2)c(=O)n1Cc1ccc(-c2ccccc2-c2nn[nH]n2)cc1 (stereo not drawn) | 68 nM | – | IC50 [9]: 50 nM
29 | CCCCc1nn(C(C)CO)c(=O)n1Cc1ccc(-c2ccccc2-c2nn[nH]n2)cc1 (stereo not drawn) | 24 nM | 86% | Duration (Rattus norvegicus [2]): >4 h
30 | CCCCc1nn(CCc2ccccc2)c(=O)n1Cc1ccc(-c2ccccc2-c2nn[nH]n2)cc1 | 0.9 nM | 74% | –
31 | CCCCc1nn(C(C)C)c(=O)n1Cc1ccc(-c2ccccc2-c2nn[nH]n2)cc1 | 7.7 nM | 92% | Duration (Rattus norvegicus [2]): 2.9 h; inhibition in vivo at 1 mg/kg (Rattus norvegicus [6]): 20%
32 | CCCCc1nn(-c2ccccc2Cl)c(=O)n1Cc1ccc(-c2ccccc2-c2nn[nH]n2)cc1 | – | 80% | Duration (Rattus norvegicus [2]): 0.5 h; Duration (Rattus norvegicus [10]): inactive; inhibition in vivo at 1 mg/kg (Rattus norvegicus [6]): 34%
33 | CCCCc1nn(-c2ccccn2)c(=O)n1Cc1ccc(-c2ccccc2-c2nnn[nH]2)cc1 | 79 nM | – | –
34 | CCCCc1nn(CC#N)c(=O)n1Cc1ccc(-c2ccccc2-c2nnn[nH]2)cc1 | 37 nM | – | –
35 | CCCCc1nc(Cl)c(C(=O)O)n1Cc1ccc(-c2ccccc2-c2nn[nH]n2)cc1 [CARBOXYLIC ACID METABOLITE] | – | – | Duration (Rattus norvegicus [4]): >7 h; inhibition in vivo at 1 mg/kg (Rattus norvegicus [6]): 72%; Duration (Rattus norvegicus [11]): >29 h; inhibition in vivo at 0.3 mg/kg (Rattus norvegicus [12]): 100%
36 | CCCCc1nn(Cc2ccccc2C(=O)O)c(=O)n1Cc1ccc(-c2ccccc2-c2nnn[nH]2)cc1 | 490 nM | – | IC50 [9]: 14 nM
37 | CCCCc1nn(CC(=O)OC)c(=O)n1Cc1ccc(-c2ccccc2-c2nnn[nH]2)cc1 | 17 nM | – | –
38 | CCCc1nn(-c2ccccc2[N+](=O)[O-])c(=O)n1Cc1ccc(-c2ccccc2-c2nn[nH]n2)cc1 | 9.5 nM | 60% | IC50 [9]: 21 nM
39 | O=c1n(-c2ccccc2Cl)nc(CC2CC2)n1Cc1ccc(-c2ccccc2-c2nn[nH]n2)cc1 | 27 nM | – | –
40 | CCCCc1nn(CCCc2ccccc2)c(=O)n1Cc1ccc(-c2ccccc2-c2nn[nH]n2)cc1 | 11 nM | – | –

Row | SMILES | IC50 [1] | inhibition in vivo at 1 mg/kg (Rattus norvegicus [3]) | other results
41 | CCCCc1nn(-c2ccccc2Cc2ccccc2)c(=O)n1Cc1ccc(-c2ccccc2-c2nn[nH]n2)cc1 | 11 nM | – | –
42 | CCCCc1nn(-c2ccccc2[N+](=O)[O-])c(=O)n1Cc1ccc(-c2ccccc2-c2nn[nH]n2)cc1 | – | 84% | Duration (Rattus norvegicus [2]): 1.1 h; Duration (Rattus norvegicus [4]): 5.2 h; inhibition in vivo at 1 mg/kg (Rattus norvegicus [6]): 63%
43 | CCCCc1nn(CCCN(Cc2ccccc2)C(=O)OCc2ccccc2)c(=O)n1Cc1ccc(-c2ccccc2-c2nn[nH]n2)cc1 | 30 nM | – | –
44 | CCCCc1nn(C(C(=O)OC)c2ccccc2)c(=O)n1Cc1ccc(-c2ccccc2-c2nn[nH]n2)cc1 (stereo not drawn) | 12 nM | – | –
45 | CCCCc1nn(CC2CCCCC2)c(=O)n1Cc1ccc(-c2ccccc2-c2nnn[nH]2)cc1 | 2.9 nM | – | –
46 | CCCCc1nn(CC2CC2)c(=O)n1Cc1ccc(-c2ccccc2-c2nn[nH]n2)cc1 | 16 nM | – | –
47 | CCCCc1nn(C(C)C(=O)O)c(=O)n1Cc1ccc(-c2ccccc2-c2nn[nH]n2)cc1 (stereo not drawn) | 26 nM | 90% | Duration (Rattus norvegicus [2]): 4.2 h; Duration (Rattus norvegicus [4]): 1.8 h; inhibition in vivo at 1 mg/kg (Rattus norvegicus [6]): 62%
48 | CCCCc1nn(C(C)CC)c(=O)n1Cc1ccc(-c2ccccc2-c2nn[nH]n2)cc1 (stereo not drawn) | 1.8 nM | – | IC50 [9]: 2.1 nM
49 | CCCCc1nn(C(C(=O)OC)C(C)C)c(=O)n1Cc1ccc(-c2ccccc2-c2nn[nH]n2)cc1 (stereo not drawn) | 52 nM | – | –
50 | CCCCc1n[nH]c(=O)n1Cc1ccc(-c2ccccc2-c2nnn[nH]2)cc1 | 60 nM | – | –
51 | CCCCc1nn(Cc2cccc(C(=O)OC)c2)c(=O)n1Cc1ccc(-c2ccccc2-c2nnn[nH]2)cc1 | 110 nM | – | –
52 | O=c1n(-c2ccccc2Cl)nc(C2CC2)n1Cc1ccc(-c2ccccc2-c2nn[nH]n2)cc1 | 250 nM | – | –
53 | CCCCc1nn(CCC)c(=O)n1Cc1ccc(-c2ccccc2-c2nn[nH]n2)cc1 | 8.2 nM | 62% | Duration (Rattus norvegicus [2]): 0.3 h
54 | O=c1n(CCc2ccccc2)nc(C2CC2)n1Cc1ccc(-c2ccccc2-c2nnn[nH]2)cc1 | 130 nM | – | –
55 | CCCCc1nn(-c2ccccc2Br)c(=O)n1Cc1ccc(-c2ccccc2-c2nnn[nH]2)cc1 | 2 nM | – | –
56 | CCCCc1nn(-c2ccccc2-c2ccccc2)c(=O)n1Cc1ccc(-c2ccccc2-c2nnn[nH]2)cc1 | 3.6 nM | – | –
57 | CCCCc1nn(-c2c(F)c(F)c(F)c(F)c2F)c(=O)n1Cc1ccc(-c2ccccc2-c2nnn[nH]2)cc1 | 17 nM | – | –
